# Measurements: patent US3931314A, “Benzophenone derivatives and process for their production” (Cassella Farbwerke Mainkur Aktiengesellschaft, priority 1972, dated 1976)
# Assays:
# [1] = LD50 (mouse), acute toxicity; conditions: in vivo
# [2] = test system: central nervous system; assay: climbing test on albino mice, sedative action on the central nervous system; type: in vivo; conditions: Mus musculus, po, read-out: Sedative action % (percentage of animals which no longer take up the climbing work); for responders at 8 mg/kg: dose 8 mg/kg p.o.; for responders at 10 mg/kg: dose 10 mg/kg p.o.
# Method: The pharmacological investigation of the sedative action on the central nervous system was carried out using the climbing tests on albino mice described by P. K. KNEIP: Arch. int. pharmacodyn 126, 238 (1960) and R. DOMENJOZ and W. THEOBALD: Arch. int. pharmacodyn 120, 450 (1959).
# In the table which follows, the results of the pharmacological investigations carried out are summarised. In the last table under the heading "Sedative action %" there is given the percentage of the experimental animals which no longer take up the normally readily assumed climbing work.
SMILES,LD50 ([1]; ip) [mg/kg],responders at 8 mg/kg [2] [%],also measured
Cc1ccc(N(C)C(=O)CNC(C)CC#N)c(C(=O)c2ccccc2)c1 (stereo not shown),300,70,
CN(C(=O)CNCC#N)c1ccc(Cl)cc1C(=O)c1ccccc1 [2-(4-Cyano-N-methyl-3-aza-butanamido)-5-chlor-benzophenone],170,60,
COC(=O)CNCC(=O)N(C)c1ccc(Cl)cc1C(=O)c1ccccc1 [2-(4-Methoxycarbonyl-N-methyl-3-aza-butanamido)-5-chlor-benzophenone],,,LD50 ([1]; po): 950 mg/kg; responders at 10 mg/kg [2]: 50%
CN(CCC(=O)O)CC(=O)Nc1ccc(Cl)cc1C(=O)c1ccccc1 [2-(5-Carboxy-3-methyl-3-aza-pentanamido)-5-chlor-benzophenone],450,90,
C=CCN(CCC#N)CC(=O)Nc1ccc(Cl)cc1C(=O)c1ccccc1Cl [2-(5-Cyano-3-allyl-3-aza-pentanamido)-2'-5-dichlor-benzophenone],630,60,
CC(C#N)CNCC(=O)Nc1ccc(Cl)cc1C(=O)c1ccccc1 (stereo not shown) [2-(5-Cyano-3-aza-hexanamid0)-5-chlor-benzophenone],600,50,
CC(CC#N)NCC(=O)Nc1ccccc1C(=O)c1ccccc1 (stereo not shown) [2-(5-Cyano-4-methyl-3-aza-pentanamido)-benzophenone],,,LD50 ([1]; po): > 1000 mg/kg; responders at 10 mg/kg [2]: 50%
"CC(CC#N)N(C)CC(=O)N(C)c1ccc(Cl)cc1C(=O)c1ccccc1 (stereo not shown) [2-(5-Cyano-N,3,4-trimethyl-3-aza-pentanamido)-5-chlor-benzophenone]",320,,responders at 9 mg/kg ([2]; dose 9 mg/kg p.o.): 50%
"CC(C#N)CN(C)CC(=O)N(C)c1ccc([N+](=O)[O-])cc1C(=O)c1ccccc1 (stereo not shown) [2-(5-Cyano-N,3-dimethyl-3-aza-hexanamido)-5-nitro-benzophenone]",480,,LD50 ([1]; po): 1100 mg/kg; responders at 10 mg/kg [2]: 60%
"CN(CCC#N)CC(=O)N(C)c1ccc(Cl)cc1C(=O)c1ccccc1 [2-(5-Cyano-N,3-dimethyl-3-aza-pentanamido)-5-chlor-benzophenone]",240,50,
"CN(CCC#N)CC(=O)N(C)c1ccc([N+](=O)[O-])cc1C(=O)c1ccccc1 [2-(5-Cyano-N,3-dimethyl-3-aza-pentanamido)-5-nitro-benzophenone]",,,LD50 ([1]; po): > 1000 mg/kg; responders at 10 mg/kg [2]: 50%
"CC(CC#N)NCC(=O)N(C)c1ccc(Cl)cc1C(=O)c1ccccc1 (stereo not shown) [2-(5-Cyano-N,4-dimethyl-3-aza-pentanamido)-5-chlor-benzophenone]",315,50,
"COc1ccc(N(C)C(=O)CNC(C)CC#N)c(C(=O)c2ccccc2)c1 (stereo not shown) [2-(5-Cyano-N,4-dimethyl-3-aza-pentanamido)-5-methoxy-benzophenone]",250,60,
"CC(CC#N)NCC(=O)N(C)c1ccccc1C(=O)c1ccccc1 (stereo not shown) [2-(5-Cyano-N,4-dimethyl-3-aza-pentanamido)-benzophenone]",320,70,
COc1ccc(N(C)C(=O)CNCCC#N)c(C(=O)c2ccccc2)c1 [2-(5-Cyano-N-methyl-3-aza-pentanamido)-5-methoxy-benzophenone],,50,
Cc1ccc(N(C)C(=O)CNCCC#N)c(C(=O)c2ccccc2)c1 [2-(5-Cyano-N-methyl-3-aza-pentanamido)-5-methyl-benzophenone],,50,
CCCCN(CCC#N)CC(=O)N(C)c1ccc(Cl)cc1C(=O)c1ccccc1 [2-(5-Cyano-N-methyl-3-n-butyl-3-aza-pentanamido)-5-chlor-benzophenone],360,80,
CCCCN(CCC#N)CC(=O)N(C)c1ccc([N+](=O)[O-])cc1C(=O)c1ccccc1 [2-(5-Cyano-N-methyl-3-n-butyl-3-aza-pentanamido)-5-nitro-benzophenone],680,50,
"CCOC(=O)CCNCC(=O)Nc1ccc(Cl)cc1C(=O)c1ccccc1Cl [2-(5-ethoxycarbonyl-3-aza-pentanamido)-2',5-dichlor-benzophenone]",,70,
CCOC(=O)CCNCC(=O)N(C)c1ccc(C)cc1C(=O)c1ccccc1 [2-(5-ethoxycarbonyl-N-methyl-3-aza-pentanamido)-5-methyl-benzophenone],,50,
CCOC(=O)CCNCC(=O)N(C)c1ccc(SC)cc1C(=O)c1ccccc1 [2-(5-ethoxycarbonyl-N-methyl-3-aza-pentanamido)-5-methylmerkapto-benzophenone],,60,
CCOC(=O)CCNCC(=O)N(C)c1ccc(C(F)(F)F)cc1C(=O)c1ccccc1 [2-(5-ethoxycarbonyl-N-methyl-3-aza-pentanamido)-5-trifluormethyl-benzophenone],400,60,
CN(CCCC#N)CC(=O)Nc1ccc(Cl)cc1C(=O)c1ccccc1 [2-(6-Cyano-3-methyl-3-aza-hexanamido)-5-chlor-benzophenone],,60,
CCOC(=O)CCCNCC(=O)Nc1ccc([N+](=O)[O-])cc1C(=O)c1ccccc1 [2-(6-ethoxycarbonyl-3-aza-hexanamido)-5-nitro-benzophenone],,50,
CCOC(=O)CCCNCC(=O)N(C)c1ccc([N+](=O)[O-])cc1C(=O)c1ccccc1 [2-(6-ethoxycarbonyl-N-methyl-3-aza-hexanamido)-5-nitro-benzophenone],650,60,
"CCCC(C)(COC(N)=O)COC(N)=O [Meprobamate, reference compound]",620,,"responders at 70 mg/kg ([2]; dose 70 mg/kg p.o., comparative preparation): 50%"
